Test results reported in patent US20240108618A1, “KRAS G12C INHIBITOR DOSING REGIMENS” (Eli Lilly and Company, priority 2022, published 2024).
Values joined by “and” are separate entries in the source; they are usually repeats but may differ in a detail not shown here. Equal values may be shown once. Marks after values point to notes of the source that are not given here.

Legend:
EL3187 = EL3187 (lung) patient-derived xenograft (PDX) model; format: in vivo, mouse
Protocol: For xenograft models of H1373, HCC44, MiaPaca-2, SW1463, SW837, KYSE-410 and UM-UC-3, typically 5-10×10^6 cells in a 1:1 matrigel mix (0.2 mL total volume) are implanted by subcutaneous injection in hind leg of nude mice. […] Treatment is initiated with oral administration (gavage) of testing compound or vehicle (20% captisol, 25 mM phosphate, pH2.0) in 0.2 mL volume when tumor size reaches approximately 200-300 mg. Tumor growth and body weight are monitored over time to evaluate efficacy and signs of toxicity. For EL3187 PDX model, frozen vials containing tumor fragments are thawed at 37° C. in a water bath. The tumor fragments are transferred to 50 mL Falcon tube and the ice cold DMEM medium is slowly added into the tube to a total volume of 35 mL. Then the tumor fragments are centrifuged at 130×g for 2 minutes at 4° C. and supernatant is aspirated. This washing step is repeated twice and the tumor fragments are resuspended in 10 mL DMEM for implantation into athymic nude-Foxn1nu mice (Envigo RMS, Inc., Mount Comfort, Indiana). Once tumor volumes reach 800 to 1000 mm^3, animals are sacrificed and tumors are harvested using aseptic technique. Fresh tumors are cut into 10 to 15 mm^3 fragments and placed into cold Gibco hibernate medium. The tumor fragments are subcutaneously implanted into animals with a 10 g trochar needle. When tumor size reaches 200 to 300 mm^3, the animals are randomized for compound treatment.
Among models listed in Table 2, EL3187 is a patient-derived xenograft (PDX) model, and all other are tumor xenograft models.

[1] = NCT04956640 Phase 1a clinical pharmacokinetics, monotherapy
Excerpt: (§1) NCT04956640 includes Phase 1a dose escalation (Part A of NCT04956640, see Table 3) followed by a Phase 1b dose expansion (Parts B to E of NCT04956640, see Table 4). […] Phase 1b dose expansion will include 12 cohorts (See Table 4) to further evaluate safety and clinical activity.

[2] = system: KRAS G12C-mutant advanced CRC; experiment: NCT04956640 Phase 1b Cohort C2 (with cetuximab) clinical response (BOR, ORR, DCR, DOR, TTR, % change from baseline, treatment duration); format: in vivo, human; set-up: key to Best Response: CR: complete response; PR: partial response; uPR: a partial response pending confirmation; SD: stable disease; PD: progressive disease; NE: not estimable; conditions: for Duration of response (DOR) <6 months / Overall response status: Censored / Reason censored: Alive without documented disease progression / Time to response (TTR) <2 months: Phase 1b Cohort C2 responders
Protocol: The term “BOR” as used herein refers to best overall response based on investigator assessments using RECIST criteria (version 1.1). The minimum duration for BOR of SD is at least 6 weeks after the date of first dose of study drug.
The term “DOR” as used herein refers to duration of response, wherein DOR in months is calculated as the event or censoring date minus the response start date plus 1 day divided by 30.4375.
The term “ORR” as used herein refers to objective response rate, wherein objective response rate is the proportion of patients with BOR of CR or PR. Objective response rate, unconfirmed, is the proportion of patients with BOR of CR, PR, or uPR.
The term “TTR” as used herein refers to time to response, wherein TTR in months is calculated as response start date minus first dose date plus 1 day divided by 30.4375.
as §1

[3] = Phase 1b Cohort C2, Total (N = 11)
[4] = Phase 1b Cohort C2, individual patients, starting dose 100 BID, no prior KRAS G12Ci, listed as compound of Formula I
[5] = Phase 1b Cohort C2, individual patients, starting dose 150 BID, no prior KRAS G12Ci, listed as compound of Formula I
[6] = Phase 1b Cohort C2, starting dose 100 mg BID (N = 6)
[7] = Phase 1b Cohort C2, starting dose 150 mg BID (N = 5)
[8] = starting dose 100 mg BID (N = 6)
[9] = starting dose 150 mg BID (N = 5)

C=CC(=O)N1CCN2C(=O)c3cc(F)c(-c4ccc(F)c5sc(N)c(C#N)c45)c(Cl)c3OCC[C@H]2C1 (single isomer, unassigned) [Formula I]
tumor growth inhibition (%) or regression (− %) (EL3187; 1 mg/kg BID x28): 89.2%
tumor growth inhibition (%) or regression (− %) (EL3187; 1 mg/kg QD x28): 52%
tumor growth inhibition (%) or regression (− %) (EL3187; 3 mg/kg BID x28): −91%
tumor growth inhibition (%) or regression (− %) (EL3187; 3 mg/kg QD x28): −39.8%
tumor growth inhibition (%) or regression (− %) (EL3187; 10 mg/kg BID x28): −96%
tumor growth inhibition (%) or regression (− %) (EL3187; 10 mg/kg QD x28): −96%
AUC ([1]; 50 mg BID): 634 (53%) ng.h/mL
Cmax ([1]; 50 mg BID): 144 (45%) ng/ml
Ctrough-Cmin ([1]; 50 mg BID): 23.8 (90%)^c ng/mL
t½ ([1]; 50 mg BID): 3.03 (41%)^c h
AUC ([1]; 100 mg BID): 1475 (77%) ng.h/mL
Cmax ([1]; 100 mg BID): 305 (75%) ng/ml
Ctrough-Cmin ([1]; 100 mg BID): 44.9 (73%) ng/mL
Ctrough-Cmin compared with TEC90 ([1]; 100 mg BID): > 25 ng/mL
t½ ([1]; 100 mg BID): 3.01 (33%)^b h
AUC ([1]; 150 mg BID): 1795 (47%) ng.h/mL
Cmax ([1]; 150 mg BID): 368 (51%) ng/ml
Ctrough-Cmin ([1]; 150 mg BID): 54.5 (60%) ng/mL
Ctrough-Cmin compared with TEC90 ([1]; 150 mg BID): > 25 ng/mL
t½ ([1]; 150 mg BID): 3.41 (32%) h
AUC ([1]; 200 mg BID): 1372 (59%) ng.h/mL
Cmax ([1]; 200 mg BID): 325 (61%) ng/ml
Ctrough-Cmin ([1]; 200 mg BID): 40.3 (73%) ng/mL
Ctrough-Cmin compared with TEC90 ([1]; 200 mg BID): > 25 ng/mL
t½ ([1]; 200 mg BID): 2.35 (58%) h
Best overall response (BOR): Complete Response (CR) [2, 3]: 0 (0.0) n (%)
Best overall response (BOR): Not Evaluable (NE) [2, 3]: 0 (0.0) n (%)
Best overall response (BOR): Partial Response (PR) [2, 3]: 3 (27.3) n (%)
Best overall response (BOR): Partial Response, pending confirmation and ongoing (uPR) [2, 3]: 2 (18.2) n (%)
Best overall response (BOR): Progressive Disease (PD) [2, 3]: 0 (0.0) n (%)
Disease control rate (CR + PR + iPR + SD), Number of patients [2, 3]: 11 (100.0) n (%)
Objective response rate (CR + PR), Number of patients [2, 3]: 3 (27.3) n (%)
Objective response rate, confirmed and unconfirmed (CR + PR + uPR), Number of patients [2, 3]: 5 (45.5) n (%)
Patients with best overall response of CR or PR [2, 3]: 3 (27.3) N′ (%)
Time to response (months), Interquartile range [2, 3]: 0.33 months
Time to response (months), Median [2, 3]: 1.31 months
Time (months) of Progressive Disease ([2]; Phase 1b Cohort C2, individual patients, starting dose 100 BID, no prior KRAS G12Ci): 4.4 months
% Change from Baseline in Sum of Diameters for all Target Lesions [2, 4]: −22.0% and −23.4% and −38.9% and −48.7% and −55.4% and −67.6%
Best Response [2, 4]: SD (3×) and PR Confirmed (3×)
Time (months) of Partial Response - Confirmed [2, 4]: 1.3 months and 1.6 months and 1.2 months
% Change from Baseline in Sum of Diameters for all Target Lesions [2, 5]: −13.6% and −19.4% and −36.7% and −45.7% and −5.7%
Best Response [2, 5]: SD (3×) and PR Pending (2×)
Time (months) of Partial Response - Pending Confirmation and Ongoing [2, 5]: 2.1 months and 1.4 months
Best overall response (BOR): Complete Response (CR) [2, 6]: 0 (0.0) n (%)
Best overall response (BOR): Not Evaluable (NE) [2, 6]: 0 (0.0) n (%)
Best overall response (BOR): Partial Response (PR) [2, 6]: 3 (50.0) n (%)
Best overall response (BOR): Partial Response, pending confirmation and ongoing (uPR) [2, 6]: 0 (0.0) n (%)
Best overall response (BOR): Progressive Disease (PD) [2, 6]: 0 (0.0) n (%)
Disease control rate (CR + PR + iPR + SD), Number of patients [2, 6]: 6 (100.0) n (%)
Objective response rate (CR + PR), Number of patients [2, 6]: 3 (50.0) n (%)
Objective response rate, confirmed and unconfirmed (CR + PR + uPR), Number of patients [2, 6]: 3 (50.0) n (%)
Patients with best overall response of CR or PR [2, 6]: 3 (50.0) N′ (%)
Time to response (months), Interquartile range [2, 6]: 0.33 months
Time to response (months), Median [2, 6]: 1.31 months
Best overall response (BOR): Complete Response (CR) [2, 7]: 0 (0.0) n (%)
Best overall response (BOR): Not Evaluable (NE) [2, 7]: 0 (0.0) n (%)
Best overall response (BOR): Partial Response (PR) [2, 7]: 0 (0.0) n (%)
Best overall response (BOR): Partial Response, pending confirmation and ongoing (uPR) [2, 7]: 2 (40.0) n (%)
Best overall response (BOR): Progressive Disease (PD) [2, 7]: 0 (0.0) n (%)
Disease control rate (CR + PR + iPR + SD), Number of patients [2, 7]: 5 (100.0) n (%)
Objective response rate (CR + PR), Number of patients [2, 7]: 0 (0.0) n (%)
Objective response rate, confirmed and unconfirmed (CR + PR + uPR), Number of patients [2, 7]: 2 (40.0) n (%)
Patients with best overall response of CR or PR [2, 7]: 0 (0.0) N′ (%)
Duration of response (DOR) <6 months ([2]; Total (N = 11)): 3 (100.0) n (%)
Overall response status: Censored ([2]; Total (N = 11)): 3 (100.0) n (%)
Reason censored: Alive without documented disease progression ([2]; Total (N = 11)): 3 (100.0) n (%)
Time to response (TTR) <2 months ([2]; Total (N = 11)): 3 (100.0) n (%)
Duration of response (DOR) <6 months [2, 8]: 3 (100.0) n (%)
Overall response status: Censored [2, 8]: 3 (100.0) n (%)
Reason censored: Alive without documented disease progression [2, 8]: 3 (100.0) n (%)
Time to response (TTR) <2 months [2, 8]: 3 (100.0) n (%)
Duration of response (DOR) <6 months [2, 9]: 0 (NE) n (%)
Overall response status: Censored [2, 9]: 0 (NE) n (%)
Reason censored: Alive without documented disease progression [2, 9]: 0 (NE) n (%)
Time to response (TTR) <2 months [2, 9]: 0 (NE) n (%)
median time to response ([2]; human, in vivo): 1.3 month
